Measurements reported in PMC10117764, “The roles of serine hydrolases and serum albumin in alisol B 23-acetate hydrolysis in humans” (Frontiers in Pharmacology, 2023).
Several values for one entry are separate records, joined by “and”; a condition that tells them apart may be missing. Identical values can stand only once.

Assays:
[1] = Hydrolytic half-life of AB23A in human liver microsomes; assay type: in vitro ADME; details: human liver microsomes (HLMs), HLMs 0.1 mg/mL, PBS pH 7.4, read-out: t1/2 (hydrolytic/metabolic half-life)
Description: (§1) The hydrolytic half-lives (t1/2) of AB23A in human plasma and different human tissue preparations were carried out according to the procedure of in vitro metabolic stability studies ([Ge et al., 2013]). The incubation mixture (1,000 μL) consisted of PBS (pH 7.4), enzyme sources (HLMs/HIMs/human plasma) and AB23A. 25% diluted human plasma was used, the protein concentrations of other tissue microsomes were 0.1 mg/mL. The 100 μL incubation mixture was moved to another containing ice-cold acetonitrile tube at different time points (0, 5, 15, 30, 45, 60, 90, 120 min). All samples were centrifuged for 30 min at 20,000 g 4°C and took the supernatants for LC-UV analysis.
(§2) The incubation conditions were as follows: the classic incubation system included 100 mM potassium phosphate buffer (PBS, pH 7.4), enzyme sources, and AB23A. In all incubations, PBS and enzyme sources were pre-incubation at 37 °C for 3 min and the reaction was started by adding AB23A (the organic solvent content at most 1%). After reacting 1 h, ice-cold acetonitrile was added to terminate the reaction and precipitate proteins. The samples were centrifuged for 30 min at 20000 × g, 4 °C, and the supernatants were taken for further LC-UV analysis.

[2] = Hydrolytic half-life of AB23A in pig liver microsomes; assay type: in vitro ADME; details: pig liver microsomes (PLMs), pH 7.4, PLMs 0.10 mg/mL, read-out: T1/2 (hydrolytic half-life)
[3] = Hydrolytic half-life of AB23A in rat liver microsomes; assay type: in vitro ADME; details: rat liver microsomes (RLMs), pH 7.4, RLMs 0.10 mg/mL, read-out: T1/2 (hydrolytic half-life)
Description: as §1, §2

[4] = Hydrolytic half-life of AB23A in mouse liver microsomes; assay type: in vitro ADME; details: mouse liver microsomes (MLMs), pH 7.4, MLMs 0.10 mg/mL, read-out: T1/2 (hydrolytic half-life)
[5] = target: T1, hBchE (Homo sapiens, UniProt P06276); assay: Kinetic analysis of AB23A hydrolysis in hBchE; assay type: in vitro ADME; details: 1 h incubation
T1 construct: purchased Sigma-Aldrich Lot SLCG5158
Description: (§3) The enzymatic kinetics of AB23A hydrolysis in different tissue preparations (HLMs, HIMs, human plasma) and human recombinant enzymes (hCES1A, hCES2A, hSA, hBchE) were analyzed. The incubation system (200 μL) consisted of PBS, each tested enzyme, and AB23A (ranging from 0 to 1,000 μM). After incubating for 1 h, the supernatants were then used for LC-UV analysis. The kinetic parameters of AB23A hydrolysis were fitted by the following Michaelis−Menten Eq. 1 ([Zhang et al., 2022]). V=(Vmax×[S])⁄(Km+[S]) (1) Here, K m is the Michaelis constant of AB23A hydrolysis, V max is the maximum velocity of AB23A hydrolysis, V max /K m is used to calculate the intrinsic clearance (CL int ).

[6] = target: T2, hSA (Homo sapiens, UniProt P02768); assay: Kinetic analysis of AB23A hydrolysis in hSA; assay type: in vitro ADME; details: 1 h incubation
T2 construct: purchased Sigma-Aldrich Lot#SLCC9268
Description: as §3

[7] = Kinetic analysis of AB23A hydrolysis in HIMs; assay type: in vitro ADME, human
Description: as §3

[8] = Kinetic analysis of AB23A hydrolysis in human plasma; assay type: in vitro ADME; details: 25% dilution
Description: as §3

[9] = Stability of AB23A in PBS under physiological conditions; assay type: physicochemical; details: pH 7.4 at 37°C
Description: AB23A and its hydrolytic metabolite were separated by ACQUITY UPLC I-Class plus system (Waters Corporation, Milford, United States) coupled with ACQUITY UPLC HSS T3 (100 mm × 2.1 mm, 1.8 μm, Waters, United States), and identified by using Q-Exactive quadru-pole-Orbitrap mass spectrometer. The mobile phases consisted of 0.1% formic acid in water (A) and acetonitrile (B) with the elution gradients were as follows: 0–2 min, 5% B, 2–4 min, 5%–30% B, 4–8 min, 30%–50% B, 8–10 min, 50%–80% B, 10–14 min, 80%–100%, 14–15 min, 100% B, 15–15.1 min, 100%–5% B, 15.1–16 min, 5% B. The flow rate was set at 0.35 mL/min, while the temperature of chromatographic column was maintained at 45°C. The mass range was set from m/z 80 to 1,200. Other MS conditions were as follows: Resolution and AGC target were set at 30000 and 1e^6, the maximum IT was 50 ms and loop count was set 10. (N) CE/stepped (N)CE was set 10, 20, 40 ev. All data were analyzed by PeakView 2.2 software and Thermo Xcalibur.
The incubation conditions were as follows: the classic incubation system included 100 mM potassium phosphate buffer (PBS, pH 7.4), enzyme sources, and AB23A. In all incubations, PBS and enzyme sources were pre-incubation at 37 °C for 3 min and the reaction was started by adding AB23A (the organic solvent content at most 1%). […]

[10] = AB23A hydrolysis in human kidney microsomes; assay type: in vitro ADME
Description: as §1, §2

[11] = target: T2, hSA; assay: Identification of the modification sites of hSA by AB23A (LC-MS/MS of tryptic peptides); details: hSA 1 mg/mL, AB23A 50 μM, 37°C; following co-incubation
Description: […] The soluble impurities and unbound molecules were washed by ultrapure water (200 μL) ([Nel et al., 2015]). After denaturation for 1 h in 8 M urea solution at 37°C, the mixture was alkylated with dithiothreitol and iodoacetamide in the dark, washed twice with 200 μL ultrapure water, and finally washed with 200 μL 50 mM ammonium bicarbonate. The samples were digested overnight with 2 μL trypsin in 50 mM ammonium bicarbonate solution at an enzyme-to-substrate ratio of 1:50 (w/w). The trypsin digest was collected and washed with 50 μL NaCl solution (500 mM). The peptides were desalted by the MonoSpin C18 (GL Sciences). Subsequently, the eluents were dried by the vacuum pump and resolved in 40 μL 0.1% formic acid for analyses (please refer to the Supplementary Material for more details).

[12] = target: T1, hBchE; assay: Reaction phenotyping assay of AB23A hydrolysis, hBchE; assay type: in vitro ADME; details: hBchE 5 μg/mL, AB23A 20 μM, 60 min, pH 7.4 at 37°C
Description: The hydrolytic rates of AB23A in different human recombinant enzymes (hCES1A, hCES2A, hPL, hIAH1, hNotum, hAchE, hBchE, hSA, hCTSA, hMAGL) were assayed. The incubation system included PBS, each tested enzyme (5 μg/mL, final concentration), and AB23A (20 μM). After incubation for 1 h at 37°C, ice-cold acetonitrile was added to terminate the reaction and precipitate proteins. The supernatants by centrifuging were used to quantify the formation rates of AB by LC-UV analysis. The detection wavelength of AB was 196 nm.

[13] = parameters: method as in Liu et al. (2022); details: oral administration of Qingfei Paidu Decoction, ref Liu et al. (2022); cited from earlier work

T2 sequence (P02768 25-609): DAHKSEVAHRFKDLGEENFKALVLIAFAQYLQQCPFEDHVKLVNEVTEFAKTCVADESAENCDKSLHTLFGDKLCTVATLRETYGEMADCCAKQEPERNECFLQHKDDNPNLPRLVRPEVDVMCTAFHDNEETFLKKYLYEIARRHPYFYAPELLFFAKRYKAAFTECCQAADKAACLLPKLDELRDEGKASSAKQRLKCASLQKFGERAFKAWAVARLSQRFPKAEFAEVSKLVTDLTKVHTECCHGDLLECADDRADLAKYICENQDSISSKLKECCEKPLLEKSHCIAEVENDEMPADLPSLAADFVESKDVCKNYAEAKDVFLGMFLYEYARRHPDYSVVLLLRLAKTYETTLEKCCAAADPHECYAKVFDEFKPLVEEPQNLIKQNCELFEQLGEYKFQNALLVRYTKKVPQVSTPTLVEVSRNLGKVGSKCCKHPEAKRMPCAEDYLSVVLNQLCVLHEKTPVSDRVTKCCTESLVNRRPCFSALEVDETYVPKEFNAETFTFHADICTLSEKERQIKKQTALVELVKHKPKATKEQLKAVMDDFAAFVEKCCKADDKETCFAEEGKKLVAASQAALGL
T1 sequence (P06276 29-602): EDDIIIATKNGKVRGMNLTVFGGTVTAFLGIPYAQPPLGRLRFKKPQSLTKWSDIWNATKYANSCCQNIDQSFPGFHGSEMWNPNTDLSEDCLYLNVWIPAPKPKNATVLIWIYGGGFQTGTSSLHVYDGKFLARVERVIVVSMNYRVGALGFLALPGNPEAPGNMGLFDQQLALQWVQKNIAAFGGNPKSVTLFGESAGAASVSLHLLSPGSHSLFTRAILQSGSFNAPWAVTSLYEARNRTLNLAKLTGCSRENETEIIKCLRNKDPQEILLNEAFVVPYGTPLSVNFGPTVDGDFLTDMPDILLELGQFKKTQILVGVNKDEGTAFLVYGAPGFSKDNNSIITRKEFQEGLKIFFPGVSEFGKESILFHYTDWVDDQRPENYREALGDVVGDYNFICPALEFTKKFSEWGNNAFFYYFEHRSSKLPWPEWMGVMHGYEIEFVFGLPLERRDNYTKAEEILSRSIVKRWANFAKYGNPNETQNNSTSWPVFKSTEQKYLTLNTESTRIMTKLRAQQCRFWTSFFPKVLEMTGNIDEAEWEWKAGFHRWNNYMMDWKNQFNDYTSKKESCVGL

CC(=O)O[C@H](C[C@@H](C)C1=C2C[C@H](O)C3[C@@]4(C)CCC(=O)C(C)(C)C4CC[C@]3(C)[C@@]2(C)CC1)[C@H]1OC1(C)C (stereo partly drawn) [AB23A, Alisol B 23-acetate]
half-life [1]: 41 ± 0.01 min | half-life [2]: 9.5 ± 0.05 min | half-life [3]: 55.63 ± 0.11 min | half-life [4]: 2.3 ± 0.01 min | K m of AB23A hydrolysis [5]: 35.78 ± 3.40 µM | K m of AB23A hydrolysis [6]: 261.20 ± 18.69 µM | K m of AB23A hydrolysis [7]: 164.00 ± 18.63 µM | V max of AB23A hydrolysis [7]: 2.93 ± 0.10 nmol/min/mg protein and 2.93 ± 0.10 ^a nmol/min/mg protein | K m of AB23A hydrolysis [8]: 237.10 ± 15.00 µM | V max of AB23A hydrolysis [8]: 4.536 ± 0.09 nmol/min/mL and 4.536 ± 0.09 ^b nmol/min/mL | Stability in PBS [9]: very stable | Formation of AB (hydrolytic metabolite) in HKMs [10]: trace amount of AB | Number of lysines in hSA acylated by AB23A [11]: 39 | Hydrolytic rate (formation of AB) in reaction phenotyping [12]: faster hydrolytic rate | Detection in mice plasma and liver [13]: hardly detected
